Test results: US20260193293A1, “PEPTIDES CAPABLE OF INHIBITING PROTEIN-PROTEIN INTERACTIONS AT GABAB1A SUBUNIT AND USES THEREOF” (UNIVERSITY OF COPENHAGEN, priority 2022, published 2026)
Read-outs that look alike come from different tables or passages of the source. Each block holds one compound with its values, some of them ahead of it. Non-standard residues stand in square brackets, D forms with d. Residues, ends and D or L forms follow the SMILES beside them. 1Nal = N[C@@H](Cc1cccc2ccccc12)C(=O)O; 2Nal = N[C@@H](Cc1ccc2ccccc2c1)C(=O)O; NMeV = CN[C@H](C(=O)O)C(C)C; Sar = CNCC(=O)O

Biological target: Sushi domains (SD1/2) protein
Test: Fluorescence polarization (FP) competition assay with AJAP-1probe, calculated Ki
Format: binding
Conditions: read-out: Ki (nM) mean ± SEM
Method in brief: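 Competition against 25 nM TAMRA-labelled peptide probe binding SD1/2, in PBS pH 7.4 with 1% BSA at rt, read at 530/580 nm. IC50 from sigmoidal dose-response fits, at least triplicate; Ki calculated from IC50 using probe Kd from saturation binding.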

[1] = Table 16, ncAAs incorporated peptides
[2] = Table 7, Ala-, D-amino acids and N-methylation scans of APPWT
[3] = Table 10, deep mutational scanning validation variants of APPWT

Compound: CC(=O)N[C@@H](CCC(=O)O)C(=O)N[C@@H](CC(=O)O)C(=O)N[C@@H](CC(=O)O)C(=O)N[C@@H](CO)C(=O)N[C@@H](CC(=O)O)C(=O)N[C@H](C(=O)N[C@@H](Cc1c[nH]c2ccccc12)C(=O)N[C@@H](Cc1c[nH]c2ccccc12)C(=O)N[C@@H](Cc1ccc(O)cc1)C(=O)N(C)CC(=O)N[C@H](C(=O)NCC(=O)N[C@@H](CC(=O)O)C(=O)N[C@@H](CCC(=O)O)C(=O)N[C@@H](CC(=O)O)C(N)=O)[C@@H](C)O)C(C)C (Ac-EDDSDVWWY[Sar]TGDED-NH2)
- Ki (Table 13, peptides for affinity maturation): 142 ± 3 nM

Compound: CC(=O)N[C@@H](CCC(=O)O)C(=O)N[C@@H](CC(=O)O)C(=O)N[C@@H](CC(=O)O)C(=O)N[C@@H](CO)C(=O)N[C@@H](CC(=O)O)C(=O)N[C@H](C(=O)N[C@@H](Cc1c[nH]c2ccccc12)C(=O)N[C@@H](Cc1c[nH]c2ccccc12)C(=O)N[C@@H](Cc1cccc2ccccc12)C(=O)NCC(=O)N[C@@H](C)C(=O)N[C@@H](CC(=O)O)C(=O)N[C@H](C(=O)N[C@@H](CC(=O)O)C(N)=O)[C@@H](C)O)C(C)C (Ac-EDDSDVWW[1Nal]GADTD-NH2)
- Ki [1]: 114 ± 1 nM

Compound: CC(=O)N[C@@H](CCC(=O)O)C(=O)N[C@@H](CC(=O)O)C(=O)N[C@@H](CC(=O)O)C(=O)N[C@@H](CO)C(=O)N[C@@H](CC(=O)O)C(=O)N[C@H](C(=O)N[C@@H](Cc1c[nH]c2ccccc12)C(=O)N[C@@H](Cc1c[nH]c2ccccc12)C(=O)N[C@@H](Cc1ccc2ccccc2c1)C(=O)NCC(=O)N[C@@H](C)C(=O)N[C@@H](CC(=O)O)C(=O)N[C@H](C(=O)N[C@@H](CC(=O)O)C(N)=O)[C@@H](C)O)C(C)C (Ac-EDDSDVWW[2Nal]GADTD-NH2)
- Ki [1]: 75 ± 1 nM

Compound: CC(=O)N[C@@H](CCC(=O)O)C(=O)N[C@@H](CC(=O)O)C(=O)N[C@@H](CC(=O)O)C(=O)N[C@@H](CO)C(=O)N[C@@H](CC(=O)O)C(=O)N[C@H](C(=O)N[C@@H](Cc1ccc(O)cc1)C(=O)N[C@@H](Cc1c[nH]c2ccccc12)C(=O)NCC(=O)NCC(=O)N[C@@H](C)C(=O)N[C@@H](CC(=O)O)C(=O)N[C@H](C(=O)N[C@@H](CC(=O)O)C(N)=O)[C@@H](C)O)C(C)C (Ac-EDDSDVYWGGADTD-NH2)
- Ki [3]: 3600 ± 49 nM

Compound: CC(=O)N[C@@H](CCC(=O)O)C(=O)N[C@@H](CC(=O)O)C(=O)N[C@@H](CC(=O)O)C(=O)N[C@@H](CO)C(=O)N[C@@H](Cc1ccccc1)C(=O)N[C@H](C(=O)N[C@@H](Cc1c[nH]c2ccccc12)C(=O)N[C@@H](Cc1c[nH]c2ccccc12)C(=O)NCC(=O)NCC(=O)N[C@@H](C)C(=O)N[C@@H](CC(=O)O)C(=O)N[C@H](C(=O)N[C@@H](CC(=O)O)C(N)=O)[C@@H](C)O)C(C)C (Ac-EDDSFVWWGGADTD-NH2)
- Ki [3]: 142 ± 6 nM

Now from value to compound:

- Ki [2]: 18900 ± 554 nM
Compound: CC(=O)N[C@@H](CCC(=O)O)C(=O)N[C@@H](CC(=O)O)C(=O)N[C@@H](CC(=O)O)C(=O)N[C@@H](CO)C(=O)N[C@@H](CC(=O)O)C(=O)N[C@H](C(=O)N[C@@H](Cc1c[nH]c2ccccc12)C(=O)N[C@@H](Cc1c[nH]c2ccccc12)C(=O)N(C)CC(=O)NCC(=O)N[C@@H](C)C(=O)N[C@@H](CC(=O)O)C(=O)N[C@H](C(=O)N[C@@H](CC(=O)O)C(N)=O)[C@@H](C)O)C(C)C (Ac-EDDSDVWW[Sar]GADTD-NH2)

- Ki [2]: 12300 ± 375 nM
Compound: CC(=O)N[C@@H](CCC(=O)O)C(=O)N[C@@H](CC(=O)O)C(=O)N[C@@H](CC(=O)O)C(=O)N[C@@H](CO)C(=O)N[C@@H](CC(=O)O)C(=O)N(C)[C@H](C(=O)N[C@@H](Cc1c[nH]c2ccccc12)C(=O)N[C@@H](Cc1c[nH]c2ccccc12)C(=O)NCC(=O)NCC(=O)N[C@@H](C)C(=O)N[C@@H](CC(=O)O)C(=O)N[C@H](C(=O)N[C@@H](CC(=O)O)C(N)=O)[C@@H](C)O)C(C)C (Ac-EDDSD[NMeV]WWGGADTD-NH2)

- Ki [3]: 243 ± 3 nM
Compound: CC[C@H](C)[C@H](NC(=O)[C@H](CO)NC(=O)[C@H](CC(=O)O)NC(=O)[C@H](CC(=O)O)NC(=O)[C@H](CCC(=O)O)NC(C)=O)C(=O)N[C@H](C(=O)N[C@@H](Cc1c[nH]c2ccccc12)C(=O)N[C@@H](Cc1c[nH]c2ccccc12)C(=O)NCC(=O)NCC(=O)N[C@@H](C)C(=O)N[C@@H](CC(=O)O)C(=O)N[C@H](C(=O)N[C@@H](CC(=O)O)C(N)=O)[C@@H](C)O)C(C)C (Ac-EDDSIVWWGGADTD-NH2)
